Experiment in all cases: Kinase panel enzymatic inhibition assay (Nanosyn)
Type in all cases: biochemical

For one test, the target named is T1, PLK4 (Homo sapiens, UniProt O00444).
T1 construct: Nanosyn (contract laboratory that ran the panel)
T1 sequence (O00444 1-970): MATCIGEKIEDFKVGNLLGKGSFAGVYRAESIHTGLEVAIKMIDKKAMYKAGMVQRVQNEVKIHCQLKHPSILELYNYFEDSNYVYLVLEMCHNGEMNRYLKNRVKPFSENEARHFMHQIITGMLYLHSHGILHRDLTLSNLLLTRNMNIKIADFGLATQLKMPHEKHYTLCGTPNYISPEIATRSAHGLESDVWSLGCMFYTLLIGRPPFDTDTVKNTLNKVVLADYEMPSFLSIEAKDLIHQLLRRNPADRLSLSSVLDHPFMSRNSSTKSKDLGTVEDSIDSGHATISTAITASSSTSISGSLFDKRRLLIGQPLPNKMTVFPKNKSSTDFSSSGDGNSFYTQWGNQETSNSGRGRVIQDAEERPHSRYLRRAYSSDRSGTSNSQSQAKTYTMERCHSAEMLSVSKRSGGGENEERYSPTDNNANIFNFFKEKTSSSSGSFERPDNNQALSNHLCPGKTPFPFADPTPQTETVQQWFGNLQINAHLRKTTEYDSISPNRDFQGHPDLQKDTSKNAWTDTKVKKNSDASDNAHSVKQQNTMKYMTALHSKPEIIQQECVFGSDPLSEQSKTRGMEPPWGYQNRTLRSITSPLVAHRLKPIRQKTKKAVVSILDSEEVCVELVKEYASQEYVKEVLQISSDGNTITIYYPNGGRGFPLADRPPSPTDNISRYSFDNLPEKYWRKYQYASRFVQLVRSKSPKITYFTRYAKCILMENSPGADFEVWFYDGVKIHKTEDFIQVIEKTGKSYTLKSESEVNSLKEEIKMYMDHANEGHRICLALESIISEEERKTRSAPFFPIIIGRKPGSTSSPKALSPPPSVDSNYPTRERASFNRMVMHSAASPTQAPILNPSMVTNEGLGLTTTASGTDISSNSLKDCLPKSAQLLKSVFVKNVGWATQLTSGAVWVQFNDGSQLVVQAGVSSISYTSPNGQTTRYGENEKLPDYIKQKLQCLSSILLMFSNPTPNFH
To be noted: ATP at Km; 30-minute pre-incubation; read-out: kinase inhibition in terms of IC50, PLK4. The gist of the method: (§1)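 Inhibition is expressed as percent at 5 μM or as IC50, with ATP set at the Km of each kinase and a 30-minute compound pre-incubation. Detection used an accepted enzymatic format such as Caliper mobility shift.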

For the next test, the target named is T2, SYK (Homo sapiens, UniProt P43405).
T2 construct: purchased Nanosyn
To be noted: ATP at Km; 30-minute pre-incubation; read-out: kinase inhibition in terms of IC50, SYK. Summed up:
as §1

Another test deals with T3, TAK1-TAB1 (Homo sapiens, UniProt O43318).
T3 construct: purchased Nanosyn
T3 sequence (O43318 with tags, fused parts or gaps limits assumed): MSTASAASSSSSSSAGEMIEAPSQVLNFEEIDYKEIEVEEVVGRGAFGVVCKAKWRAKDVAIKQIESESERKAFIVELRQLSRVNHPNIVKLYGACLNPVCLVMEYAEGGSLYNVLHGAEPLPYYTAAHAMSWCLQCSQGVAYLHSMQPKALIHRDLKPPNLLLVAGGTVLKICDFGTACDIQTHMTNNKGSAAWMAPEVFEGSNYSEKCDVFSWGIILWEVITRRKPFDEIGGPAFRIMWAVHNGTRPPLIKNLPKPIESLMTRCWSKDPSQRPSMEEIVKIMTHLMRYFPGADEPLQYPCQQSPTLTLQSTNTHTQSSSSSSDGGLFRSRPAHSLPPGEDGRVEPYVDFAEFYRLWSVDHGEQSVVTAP
The following applies: ATP at Km; 30-minute pre-incubation; read-out: kinase inhibition in terms of IC50, TAK1-TAB1. The gist of the method:
as §1

The target in the next test is T4, MER (Homo sapiens, UniProt Q12866).
T4 construct: Nanosyn (contract laboratory that ran the panel)
T4 sequence (Q12866 21-999): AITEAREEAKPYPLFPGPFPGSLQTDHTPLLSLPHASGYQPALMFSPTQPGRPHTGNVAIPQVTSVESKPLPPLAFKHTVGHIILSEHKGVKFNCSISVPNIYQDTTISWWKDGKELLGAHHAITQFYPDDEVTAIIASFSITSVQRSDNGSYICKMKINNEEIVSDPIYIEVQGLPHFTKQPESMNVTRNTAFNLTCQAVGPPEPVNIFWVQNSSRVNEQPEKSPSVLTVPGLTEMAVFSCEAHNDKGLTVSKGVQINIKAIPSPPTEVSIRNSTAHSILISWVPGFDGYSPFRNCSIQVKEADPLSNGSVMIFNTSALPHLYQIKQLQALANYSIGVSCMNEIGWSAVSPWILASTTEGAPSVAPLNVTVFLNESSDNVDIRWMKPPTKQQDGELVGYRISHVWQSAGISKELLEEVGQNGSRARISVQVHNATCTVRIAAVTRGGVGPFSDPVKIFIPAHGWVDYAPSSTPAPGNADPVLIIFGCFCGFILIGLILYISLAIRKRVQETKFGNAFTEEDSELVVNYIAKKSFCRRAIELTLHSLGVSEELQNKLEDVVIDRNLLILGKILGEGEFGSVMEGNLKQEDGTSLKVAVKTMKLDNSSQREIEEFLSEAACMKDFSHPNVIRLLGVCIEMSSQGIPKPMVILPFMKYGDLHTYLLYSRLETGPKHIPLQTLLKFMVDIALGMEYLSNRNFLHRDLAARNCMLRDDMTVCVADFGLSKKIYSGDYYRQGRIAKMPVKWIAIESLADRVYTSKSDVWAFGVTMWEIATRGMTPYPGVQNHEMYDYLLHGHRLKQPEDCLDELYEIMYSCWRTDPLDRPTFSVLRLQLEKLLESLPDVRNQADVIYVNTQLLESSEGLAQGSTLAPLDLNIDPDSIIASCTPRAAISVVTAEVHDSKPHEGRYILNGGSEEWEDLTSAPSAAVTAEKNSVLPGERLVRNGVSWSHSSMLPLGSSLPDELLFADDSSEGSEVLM
The following applies: ATP at Km; 30-minute pre-incubation; read-out: kinase inhibition in terms of IC50, MER. The gist of the method: as §1

The IC50 is the concentration that gives 50% inhibition.

As to `COc1cc2nccc(Oc3ccc(NC(=O)c4cc(S(C)(=O)=O)n(-c5ccc(F)cc5)n4)c(F)c3)c2cc1OC` [Ex71, N-(4-((6,7-dimethoxyquinolin-4-yl)oxy)-2-fluorophenyl)-1-(4-fluorophenyl)-5-(methylsulfonyl)-1H-pyrazole-3-carboxamide], the IC50 at PLK4 was 1 to 10 µM; on SYK, no less than 10 µM; on TAK1-TAB1 it was no less than 10 µM; at MER, less than 0.5 µM.
For the molecule `COc1cc2nccc(Oc3ccc(NC(=O)c4cc(S(C)(=O)=O)n(-c5ccc(F)cc5)n4)cc3F)c2cc1OC` [Ex73, N-(4-((6,7-dimethoxyquinolin-4-yl)oxy)-3-fluorophenyl)-1-(4-fluorophenyl)-5-(methylsulfonyl)-1H-pyrazole-3-carboxamide], the IC50 was less than 0.5 µM at PLK4, no less than 10 µM at SYK, no less than 10 µM on TAK1-TAB1 and less than 0.5 µM on MER.
Take `COc1cc2nccc(Oc3ccc(NC(=O)c4cc(S(C)(=O)=O)n(-c5ccc(F)cc5)n4)cc3)c2cc1OC` [Ex72, N-(4-((6,7-dimethoxyquinolin-4-yl)oxy)phenyl)-1-(4-fluorophenyl)-5-(methylsulfonyl)-1H-pyrazole-3-carboxamide]: the half-inhibitory concentration (IC50) at PLK4 was 0.5 to 1 µM; on SYK, 1 to 10 µM; at TAK1-TAB1, no less than 10 µM; on MER, 0.5 to 1 µM.
